Two compounds from patent publication US6610676B1, “Nitrate esters of corticoid compounds and pharmaceutical applications thereof” (Nicox S.A., priority 1996, dated 2003) can be followed below.

Marks after values point to notes of the source that are not given here.

One series has as its system Male Sprague-Dawley rats. Put plainly: Gastric tolerability (safety). The note with it: 24 h, lesion scale 0 = absent to 4 = severe and numerous ulcers. It counts as in vivo. The procedure: Male Sprague-Dawley rats fasted for 24 hours were treated with 5 to 10 mg/kg of intraperitoneal hydrocortisone or HCN.
Twenty-four hours later the animals were sacrified, the stomach was removed and tissue was grossly examined for the presence of lesions as described by Del Soldato et al.: “The influence of fasting and cimetidine on the relationship between ulcerogenic and anti-inflammatory properties of […]”, Br.J.Pharmacol. 67, 33-37, 1979. The degree of severity of the disease was evaluated according to common methods and expressed as arbitrary values.

Series [1] concerns conscious Long Evans rats. Put plainly: Cardiovascular parameters in conscious rats. It counts as in vivo. The note with it: 10 mg/kg s.c., 4 h after treatment; for BLOOD PRESSURE: compared to vehicle group (101 ± 2 mm Hg); for HEART RATE (%): compared to vehicle group (324 ± 7 beats per minute). Here is the method:
The effect of the test products on some cardiovascular parameters was studied in conscious Long Evans rats (350 to 450 g) which were appropriately monitored, as described by Gardiner et al.: “Influence of dexamethasone on the regional haemodynamic responses to lipopolysaccharide in conscious rats: effect of the non-selective endothelin antagonist: SB 209670”, Br.J. Pharmacology 117, 49P, 1996. The animals were treated with the vehicle (physiologic saline solution, 0,9% sodium chloride, s.c.) subcutaneous hydrocortisone or HCN (10 mg/kg). Heart rate and blood pressure were recorded 4 hours after treatment.

The subject of series [2] is parietal bone from rat foetus. Put plainly: Bone toxicity, bone tissue grown in vitro. It counts as cell-based. The conditions noted are these: 10 nmol (table), 96 h incubation, compared to initial value. Here is the method: Bone tissues (parietal bone from rat foetus) grown in vitro according to the method described by Doherty et al. (“The effect of glucocorticoids on osteoblast function. The effect of corticosterone on osteoblast, expression of beta-I integrins”, Journal of Bone and Joint Surgery, Series A77/3, 396-404, 1995) was used. […]
Ninety six hours later calcium content and bone dry weight were measured.

The next series concerns Male Wistar rats. In words: Angiostatic activity, rat sponge model, 133Xe clearance. It counts as in vivo. The note with it: for SPLEEN weight / THYMUS weight: 10 mg/kg s.c. day 1 to 13, day 14; for 133Xe clearance (%): 10 mg/kg s.c. day 1 to 13, measured at day 14, clearance for 6 minutes as % of initial value.
Another series relates to nitroxysynthetase. Put plainly: LPS-induced nitroxysynthetase activity in rat neutrophils and stomach. It counts as in vivo, rats. The conditions noted are these: 10 mg/kg i.p., LPS 5 mg/kg i.v., 4 h; compared to vehicle group (vehicle = 100).
For another series, the system named is mice of the Swiss strain. Put plainly: Acute toxicity study, single oral dose. It counts as in vivo. The conditions noted are these: single oral dose 50 mg/kg, 10 Swiss mice, 14 days observation. An excerpt:
The acute toxicity of the product from Example 1A was roughly evaluated by orally administering a single dose of substance to a group of 10 mice of the Swiss strain.
Death incidence and appearance of toxic symptoms were observed during a period of 14 days after the compound administration.

In series [3] the test system is male rats of Lewis strain. Put plainly: Antiarthritic activity, adjuvant arthritis induced by Mycobacterium butyricum. It counts as in vivo. The conditions noted are these: day 21, inhibition of arthritis score vs vehicle group.

In the case of `C[C@]12CCC(=O)C=C1CC[C@@H]1[C@@H]2[C@@H](O)C[C@@]2(C)[C@H]1CC[C@]2(O)C(=O)COC(=O)CCCO[N+](=O)[O-]` [HCN, Hydrocortisone 4-Nitroxybutanoate], the “GASTRIC TOLERABILITY” value in the series on Male Sprague-Dawley rats (5 mg/kg i.p.) is listed as 0.5* arbitrary values. The “GASTRIC TOLERABILITY” value with Male Sprague-Dawley rats (10 mg/kg i.p.) is 1.2* arbitrary values. In series [1], the “BLOOD PRESSURE” value is reported as 103 per-cent and the “HEART RATE (%)” value turned out to be 98%. Besides, in series [2], the “Calcium Δ%” value came out at 287% and the “DRY TISSUE WEIGHT Δ%” value worked out at 149%. Moreover, in the series on Male Wistar rats, the “SPLEEN weight” value worked out at 673 ± 38 mg, the “THYMUS weight” value stood at 297 ± 31 mg and the “133Xe clearance (%)” value is given as 22* %. In addition, the “NITROXYSYNTHETASE ACTIVITY” value in the series with nitroxysynthetase is listed as 62* per cent. In the series with mice of the Swiss strain, the “Acute toxicity (death incidence and toxic symptoms)” value is reported as “no sign of apparent toxicity”. Besides, the “ANTIARTHRITIC ACTIVITY (%)” value in series [3] (5 mg/kg i.p.) is reported as 45%. The “ANTIARTHRITIC ACTIVITY (%)” value in series [3] (10 mg/kg i.p.) amounted to 62%.

`C[C@]12CCC(=O)C=C1CC[C@@H]1[C@@H]2[C@@H](O)C[C@@]2(C)[C@H]1CC[C@]2(O)C(=O)CO` [HYDROCORTISONE, hydrocortisone, reference compound]: in the series with Male Sprague-Dawley rats (5 mg/kg i.p.), the “GASTRIC TOLERABILITY” value was determined as 2.0 arbitrary values. Also, the “GASTRIC TOLERABILITY” value with Male Sprague-Dawley rats (10 mg/kg i.p.) was 3.5 arbitrary values. Also, in series [1], the “BLOOD PRESSURE” value is reported as 115* per-cent and the “HEART RATE (%)” value is given as 89* %. In series [2], the “Calcium Δ%” value is 70° % and the “DRY TISSUE WEIGHT Δ%” value stood at 95° %. In addition, in the series with Male Wistar rats, the “SPLEEN weight” value amounted to 642 ± 32 mg, the “THYMUS weight” value is 185 ± 17 mg and the “133Xe clearance (%)” value came to 33%. For the same compound, the “NITROXYSYNTHETASE ACTIVITY” value in the series with nitroxysynthetase is given as 55* per cent. For the same compound, the “ANTIARTHRITIC ACTIVITY (%)” value in series [3] (5 mg/kg i.p.) is listed as 40%. In series [3] (10 mg/kg i.p.), the “ANTIARTHRITIC ACTIVITY (%)” value was found to be 55%.
